Data: the supplement of paper PMC11451515

Columns and labels:
Details in all cases: 48 h
NOMO1 [1] = experiment: AUC of viability dose-response curve (% viability x log10 dose units); higher = less sensitive
In short: (§1)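 Over 48 h at 37°C, leukemia cells in 1536-well plates (500 or 1000 cells/well), adapted to each medium, received library compounds in DMSO at 11 threefold doses from 47 μM to 0.79 nM. CellTiter-Glo One luminescence, normalised per plate to DMSO and cell-free wells, was fitted by a four-parameter log-logistic function of log10 dose. The area under the curve was then integrated by trapezoidal rule, after scaling curves above full viability and removing those that failed quality control.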

SEM cells [2] = experiment: as above
In short: as §1

P12-Ichikawa [3] = experiment: as above
In short: as §1

NOMO1 [4] = experiment: cell viability relative to DMSO control; higher = less cytotoxic
In short: (§2)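 Library compounds in DMSO were pin-dosed into 1536-well plates (5 μl) holding NOMO1 or SEM (500 cells/well) or P12-Ichikawa (1000 cells/well) leukemia cells, across an 11-point threefold series of 47 μM to 0.79 nM. Each cell line had been adapted for at least four passages in each medium. CellTiter-Glo One luminescence was read after 48 h at 37°C. Viability is the per-plate percentage relative to DMSO wells, with cell-free wells as background.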

SEM cells [5] = experiment: as above
In short: as §2

P12-Ichikawa [6] = experiment: as above
In short: as §2

COc1ccc2c(c1)c(CC(=O)OCC(=O)O)c(C)n2C(=O)c1ccc(Cl)cc1
AUC of viability dose-response curve
Details | NOMO1 [1] | P12-Ichikawa [3] | SEM cells [2]
HPLM + 10% dialyzed FBS | 468 | 458 | 470
RPMI 5 mM glucose + 10% FBS | 439 | 436 | 432
RPMI 5 mM glucose + 10% dialyzed FBS | 463 | 450 | 454

cell viability [%]
Details | NOMO1 [4] | P12-Ichikawa [6] | SEM cells [5]
HPLM + 10% dialyzed FBS, 0.000781 µM | 123 | 119 | 109
HPLM + 10% dialyzed FBS, 0.00234 µM | 131 | 126 | 114
HPLM + 10% dialyzed FBS, 0.00702 µM | 122 | 118 | 111
HPLM + 10% dialyzed FBS, 0.0211 µM | 136 | 113 | 110
HPLM + 10% dialyzed FBS, 0.0632 µM | 117 | 116 | 112
HPLM + 10% dialyzed FBS, 0.19 µM | 131 | 114 | 110
HPLM + 10% dialyzed FBS, 0.569 µM | 128 | 112 | 119
HPLM + 10% dialyzed FBS, 1.71 µM | 114 | 118 | 102
HPLM + 10% dialyzed FBS, 5.12 µM | 123 | 112 | 113
HPLM + 10% dialyzed FBS, 15.4 µM | 120 | 116 | 109
HPLM + 10% dialyzed FBS, 46.1 µM | 123 | 108 | 106
RPMI 5 mM glucose + 10% FBS, 0.000781 µM | – | – | 121
RPMI 5 mM glucose + 10% FBS, 0.00234 µM | – | – | 126
RPMI 5 mM glucose + 10% FBS, 0.00702 µM | – | – | 121
RPMI 5 mM glucose + 10% FBS, 0.0211 µM | – | – | 120
RPMI 5 mM glucose + 10% FBS, 0.0632 µM | – | – | 113
RPMI 5 mM glucose + 10% FBS, 0.19 µM | – | – | 111
RPMI 5 mM glucose + 10% FBS, 0.569 µM | – | – | 109
RPMI 5 mM glucose + 10% FBS, 1.71 µM | – | – | 99.8
RPMI 5 mM glucose + 10% FBS, 5.12 µM | – | – | 113
RPMI 5 mM glucose + 10% FBS, 15.4 µM | – | – | 98.4
RPMI 5 mM glucose + 10% FBS, 46.1 µM | – | – | 102
RPMI 5 mM glucose + 10% dialyzed FBS, 0.000781 µM | 112 | 120 | 119
RPMI 5 mM glucose + 10% dialyzed FBS, 0.00234 µM | 137 | 125 | 131
RPMI 5 mM glucose + 10% dialyzed FBS, 0.00702 µM | 110 | 116 | 123
RPMI 5 mM glucose + 10% dialyzed FBS, 0.0211 µM | 142 | 139 | 123
RPMI 5 mM glucose + 10% dialyzed FBS, 0.0632 µM | 117 | 116 | 116
RPMI 5 mM glucose + 10% dialyzed FBS, 0.19 µM | 133 | 119 | 116
RPMI 5 mM glucose + 10% dialyzed FBS, 0.569 µM | 120 | 120 | 128
RPMI 5 mM glucose + 10% dialyzed FBS, 1.71 µM | 135 | 113 | 110
RPMI 5 mM glucose + 10% dialyzed FBS, 5.12 µM | 115 | 115 | 112
RPMI 5 mM glucose + 10% dialyzed FBS, 15.4 µM | 123 | 113 | 113
RPMI 5 mM glucose + 10% dialyzed FBS, 46.1 µM | 106 | 107 | 100
